Source: publication PMC8860381 (Molecular Cell, 2022)

Tests used:
hSKI-Δarch = target: T1, hSKI-Δarch (Homo sapiens, UniProt Q15477); assay: pyruvate kinase/lactate dehydrogenase-coupled ATPase assay; assay type: biochemical; settings: 10 μg/mL poly(U) RNA, 50 nM complex, 5 mM MgAc2, 50 mM KAc, pH 7.5, 37°C
T1 construct: gene SKIC2; Sf21 insect cells; 10xHis tag on TTC37 removed; with Superkiller complex protein 3 (tetratricopeptide repeat protein 37); Superkiller complex protein 8 (WD repeat-containing protein 61)
From the text: pyruvate kinase/lactate dehydrogenase-coupled ATPase assay on hSKI-Δarch | removal of the hSKI2 arch domain led only to a minor increase in the ATPase activity

[1] = target: T2, hSKI complex (hSKI-WT; hSKI2-hSKI3-hSKI8) (Homo sapiens, UniProt Q15477, E424Q); assay: as above; assay type: biochemical; settings: 10 μg/mL poly(U) RNA, 50 nM complex, 5 mM MgAc2, 50 mM KAc, pH 7.5, 37°C
T2 construct: gene SKIC2; full-length subunits co-expressed in Sf21 insect cells; 3C-cleavable 10xHis tag on TTC37 N-terminus, tag removed; with Superkiller complex protein 3 (tetratricopeptide repeat protein 37); Superkiller complex protein 8 (WD repeat-containing protein 61)

[2] = target: T3, hSKI complex (hSKI-WT; hSKI2-hSKI3-hSKI8) (Homo sapiens, UniProt Q15477, V341G); assay: as above; assay type: biochemical; settings: 10 μg/mL poly(U) RNA, 50 nM complex, 5 mM MgAc2, 50 mM KAc, pH 7.5, 37°C
T3 construct: gene SKIC2; full-length subunits co-expressed in Sf21 insect cells; 3C-cleavable 10xHis tag on TTC37 N-terminus, tag removed; with Superkiller complex protein 3 (tetratricopeptide repeat protein 37); Superkiller complex protein 8 (WD repeat-containing protein 61)

[3] = tested on: Nc1ncnc2c1ncn2[C@@H]1O[C@H](COP(=O)(O)OP(=O)(O)OP(=O)(O)O)[C@@H](O)[C@H]1O; assay: as above; assay type: biochemical, Homo sapiens; settings: 10 μg/mL poly(U) RNA, 50 nM complex, 5 mM MgAc2, 50 mM KAc, pH 7.5, 37°C
[4] = target: hEXO10c (hEXO9 core + hDIS3L D486N) (Homo sapiens, UniProt Q8TF46;Q9Y3B2;Q13868;Q9NQT5;Q9NPD3;Q9NQT4;Q5RKV6;Q15024;Q96B26;Q06265 …, D486N); assay: RNase protection (benzonase); hEXO10c alone, characteristic footprint, lane 1; Binding buffers not in material (Methods sections for RNase protection and cryo-EM sample preparation are empty); hSKI storage buffer 20 mM Hepes pH 7.5, 100 mM NaCl, 2 mM DTT; settings: protein: recombinant; tags: TwinStrep-3C on DIS3L N-terminus; copies: 1;1;1;1;1;1;1;1;1;1; label: 32P body-labelled (alpha-32P UTP); single strand

For Nc1ncnc2c1ncn2[C@@H]1O[C@H](COP(=O)(O)OP(=O)(O)OP(=O)(O)O)[C@@H](O)[C@H]1O [ATP], the Km (hSKI-Δarch) was 121 µM, the ATPase activity abolished [1] was “the ATPase activity of hSKI was abolished in the case of a mutant complex” and the “inactive in ATPase assay” value [2] was “V341G substitution (hSKI-THES) and indeed found that it is inactive in ATPase assays”.

With “hSKI complex (hSKI-WT; hSKI2-hSKI3-hSKI8) (Homo sapiens)” the Km [3] was 149.4 µM and the kcat [3] was 0.685 s⁻¹.

B1: GGGC(*UC)48 RNA (ssRNA)
RNA: GGGCUCUCUCUCUCUCUCUCUCUCUCUCUCUCUCUCUCUCUCUCUCUCUCUCUCUCUCUCUCUCUCUCUCUCUCUCUCUCUCUCUCUCUCUCUCUCUCUC
B1: binds [4].
